In paper PMC9921564, “Novel Indole-Containing Hybrids Derived from Millepachine: Synthesis, Biological Evaluation and Antitumor Mechanism Study” (Molecules, 2023):

What was measured:
Type in all cases: cell-based
[1] = system: A2780/TAX (A2780 cell line resistant to taxol); experiment: CCK-8 cytotoxicity, A2780/TAX; details: Homo sapiens, 48 h, CCK-8, taxol-resistant, read-out: IC50, Mean ± SE, A2780/TAX
Experimental: (§1) Besides the high cytotoxicity, drug resistance is the other limiting factor of chemotherapeutics. In this study, the cytotoxicities of compound 14b towards five kinds of drug-resistant cancer cell lines were also evaluated. Except three kinds of cell lines that are resistant to three drugs commonly used in clinical practice, two kinds of cell lines that are resistant to MTAs were also evaluated.
(§2) A549 (non-small-cell-lung cancer cell line), Caski (human epithelial cervical cancer cell line), HepG2 (human liver carcinoma cell line), MCF-7 (human breast carcinoma cell line), C42B (human prostate cancer line C42B), L-02 (human normal hepatocytes), RWPE-1 (human prostate epithelial cells) and MCF-10A (human normal mammary epithelial cells) were obtained from National Collection of Authenticated Cell Cultures (Shanghai, China). […]
(§3) After 24 h, the medium containing different concentrations of tested compounds were added for another 48 h. […] The optical density was recorded with a microplate reader at 570 nm (Thermo Scientific, Varioskan LUX). All the experiments were repeated independently at least three times and the IC50 values were calculated […]

[2] = system: MCF-7/DOX (MCF-7 cell line resistant to doxorubicin); experiment: CCK-8 cytotoxicity, MCF-7/DOX; details: Homo sapiens, MCF7-DOX; 48 h, CCK-8, doxorubicin-resistant; read-out: IC50, Mean ± SE, MCF-7/DOX
Experimental: as §1, §2, §3
(§4) The fluorescence intensity enhancement (emission wavelength is 410 nm, excitation wavelength is 340 nm) was recorded every 60 s for 60 min in a multifunction microplate reader (Molecular Devices, Flex Station 3). […]

[3] = system: C42B/ENZR (C42b cell line resistant to Enzalutamide); experiment: CCK-8 cytotoxicity, C42B/ENZR; details: Homo sapiens; 48 h, CCK-8, Enzalutamide-resistant; read-out: IC50, Mean ± SE, C42B/ENZR
Experimental: as §1, §2, §3, §4

For COc1ccc(C(=O)c2ccc3c(ccn3C)c2)c2c1C=CC(C)(C)O2 [compound 14b, (5-methoxy-2,2-dimethyl-2H-chromen-8-yl)(1-methyl-1H-indol-5-yl)methanone], the IC50 [1] was 42 ± 11 nM, the IC50 [2] was 51 ± 24 nM and the IC50 [3] was 42 ± 11 nM.
